The record followed here is US20100029973A1, “Fatty acid analogues for equilibrating bone mineral density” (priority 2005, published 2010).

The subject of series [1] is mitochondrial β-oxidation in the liver. Briefly: activity of mitochondrial β-oxidation in the liver. As to conditions: fatty acid analogues with sulphur in 3, 5, 7 position vs palmitic acid control. An excerpt:
Although all fatty acid anagoges with an odd positioning of the β-oxidation blocker X away from the carboxylic end block β-oxidation, the extent of their biological effect may be variable. This is due to the difference in biological degradation time of the various compounds. The inventors have done experiments to show the effect of moving X further from the carboxylic fatty acid end. In these experiments the activity (in nmol/min/mg/protein) of mitochondrial β-oxidation in the liver of fatty acid analogues was measured with sulphur in the 3, 5 and 7 positions relative to the carboxyl end. The activities were 0.81 for sulphur in the 3rd position, 0.61 for sulphur in the 5th position, 0.58 for sulphur in the 7th position, and 0.47 for palmitic acid, the non β-oxidation blocking control. […] However, as the decline is great for going from the 3rd to 5th position, but small going from the 5th to 7th position, it is reasonable to assume that this decline will continue to be less as one moves out the chain, and thus that it will be very far out indeed before no effect (compared to the control) is seen at all.

In the next series the test system is femoral BMD. Briefly: femoral BMD in rats by DXA. Format: in vivo, rat. As to conditions: female Fischer rats, 50 mg/kg body weight, intragastric gavage, 4 months. As for the experimental part:
Fifty female Fischer rats were divided into 5 groups and were given methocel (control group), Wyeth 14,643, fenofibrate, tetradecylthioacetic acid (TTA) and pioglitazone (50 mg/kg body weight) by intragastric gavage for 4 months. Body weight was registered throughout the study. BMD was measured by double x-ray absorptiometry (DXA). Histomorhometry of femur was performed, and mechanical strength in the femoral shaft and collum femoris was measured.

Series [2] relates to preosteoblast cell line MC3T3-E1. As to the kind of experiment: release of OPG, RANKL and IL6 from preosteoblast cell line MC3T3-E1. Format: cell-based. The settings on record: preosteoblasts (MC3T3-E1). The source says:
The effect of the PPAR agonists on release of osteoprotegerin (OPG), RANKL and IL6 from the preosteoblast cell line MC3T3-E1 was investigated. […] Wyeth 14643, fenofibrate and TTA were also shown to stimulate OPG release and inhibit IL6 release from preosteoblasts, while no effects on RANKL could be detected.

The next series concerns human monocytes. As to the kind of experiment: differentiation of human monocytes into osteoclasts. Format: cell-based.
Series [3] relates to preosteoclast cell line RAW264.7. Briefly: proliferation of preosteoclast cell line RAW264.7. Format: cell-based.
A short description of series [4]: degradation time in vivo of ω-oxidation-blocked fatty acid analogue. As to conditions: triple bond at methyl end blocking ω-oxidation. An excerpt:
ω-oxidation is believed to be the main pathway for degradation of the fatty acid analogues as described with a block in the X position. Experiments were thus performed where R′ was changed to block w-oxidation, by introducing a triple bond at the methyl end of the fatty acid analogue. […] This is important for the use of the fatty acid analogues in pharmaceutical preparation, as it may potentiate the effects of the β-oxidizable fatty acid analogues by further slowing down their breakdown.

Turning to `CCCCCCCCCCCCCCCC(=O)O` [palmitic acid], the “activity of mitochondrial β-oxidation in the liver” value in series [1] amounted to 0.47 nmol/min/mg/protein.
On to `Cc1cccc(Nc2cc(Cl)nc(SCC(=O)O)n2)c1C` [Wyeth 14,643], for which the “change in femoral BMD versus control rats” value with femoral BMD is listed as 7%. In addition, in series [2], the IL6 release entry is listed as “stimulated”, the OPG release entry was “stimulated” and the RANKL release result is reported as “no effects”. Moreover, in series [2] (listed as Wyeth 14643), the IL6 release entry is reported as “inhibit” and the OPG release result is “stimulate”. Further, in the series with human monocytes, the “differentiation of human monocytes into osteoclasts” value is on record as “inhibit the differentiation of human monocytes into osteoclasts in a dose-dependent manner”. Moreover, the “proliferation of RAW264.7” value in series [3] is listed as “inhibited the proliferation”.
Regarding `CC#CCCCCCCCCCCCSCC` [3-thia-15-heptadecyn], the “degradation time in vivo” value in series [4] is listed as “substantially increased degradation time in vivo”.
For `CC(C)OC(=O)C(C)(C)Oc1ccc(C(=O)c2ccc(Cl)cc2)cc1` [fenofibrate], in the series on femoral BMD, the “change in femoral BMD versus control rats” value was 5.7%.
The same measure, in the same setting: then `CCc1ccc(CCOc2ccc(CC3SC(=O)NC3=O)cc2)nc1` (stereo not drawn) [pioglitazone], with −3%.
